{"source": "patent EP4772520A1", "about": "“NOVEL PRODRUG-TYPE ANTICANCER AGENT TARGETING CANCER-SPECIFIC ENZYME ACTIVITY” (priority 2023, dated 2025)", "key": {"[1]": {"test": "Kinetic test in intraperitoneal administration", "type": "in vivo, Mice", "settings": "30 mg/kg i.p.", "experimental": "A specific procedure of the pharmacokinetics test is shown below. • (1) SN38-βGal (30 mg/kg) was dissolved in 100 µL of PBS and administered by i.p. • (2) 150 to 200 µL of anesthesia (in the case of a mixture of three types of Domitor + Betorphal + Mitazolam) was intraperitoneally administered 5 minutes before dissection at each time. • (3) The inside of a syringe was coated with sodium heparin, and at each evaluation time, the mouse was quickly stuck to the dissecting pad, and the abdomen was opened without bleeding, and whole blood was collected from the right ventricle with a 23 G needle. 100 µM β-Galactosidase inhibitor was added to whole blood. • (4) After whole blood collection, brain, heart, lung, liver, pancreas, spleen, kidney, stomach, small intestine, large intestine, muscle, and fat were taken out. As the muscle, a muscle near the thigh was resected. The weight of each organ was measured. • (5) Whole blood was centrifuged at 1200 G for 15 min at 4°C, and 200 µL of supernatant was collected. 800 µL of a solution of MeOH/MeCN = 1:1 (containing Rhodamine 123 = 25 µM as an internal standard) was added thereto, and the mixture was allowed to stand for 10 minutes. • (6) After standing, centrifugation was performed at 1700 G for 15 min at 4°C, and the supernatant was collected. About 80 µL of the mixture was fractionated, loaded on a Cosmo Spin Filter G (0.2 um), centrifuged at 12000 G for 5 min at 4°C, and filtered to collect a sample. • (7) Each resected organ was finely cut and put into a tube of Lysing Matrix D, 1000 µL of Lysis Buffer (added with 100 µM β-Galactosidase inhibitor) was added thereto, and the mixture was crushed with a shaker. • (8) The supernatant was collected from the tube of Lysing Matrix, and then centrifuged at 10,000 G for 5 min at 4°C to collect the supernatant to obtain a lysate solution. • (9) To 100 µL of the organ lysate solution, 200 µL of MeOH/MeCN = 1:1 (containing 30 µM of Rhodamine 123 as an internal standard) was added, and the mixture was allowed to stand for 10 minutes. • (10) Centrifugation was performed at 1700 G for 15min at 4°C to collect 200 µL of the supernatant. The supernatant was loaded on a Cosmo Spin Filter G (0.2 µm) and centrifuged at 12000 G for 5 min at 4°C to collect a sample. • (11) 50 µL of purified water and 50 µL of a filtered plasma sample or organ lysate sample were mixed, 10 µL of the mixture was injected into HPLC, and data of the area under the curve of the PDA spectrum at 380 nm (derived from SN 38) and 490 nm (derived from Rhodamine 123) were acquired, and then the respective numerical values were calculated from the volume for blood and the weight for organs by one inspection amount of Rhodamine 123.\nA specific procedure of the intraperitoneal concentration evaluation test is shown below. • (1) Intraperitoneal administration (i.p.) was performed on an evaluation amount of the drug. • (2) 2.0 mL of PBS was administered by i.p. at each evaluation time, and the abdomen was immediately massaged and sacrificed so that the drug could be collected as much as possible on the PBS side after administration. A small hole was made in the abdomen, and PBS in the abdominal cavity was quickly collected with a 1.0 mL syringe in a pushing manner, and this solution was used as an peritoneal washing solution. • (3) To 200 µL of the collected peritoneal washing solution, 800 µL (containing Rhodamine 123 = 25 µM) of 800 µL MeCN/MeOH = 1:1 was added to precipitate proteins. The supernatant was collected by centrifugation at 1700 G for 5 min at 4°C. • (4) 80 µL of the recovered supernatant was loaded on a cosmo spin filter G and centrifuged at 12000 G for 5 min at 4°C, and 50 µL of purified water was added to 50 µL of the recovered material to adjust the total amount to 100 µL to prepare a sample. • (5) The concentration of SN38-βGal was measured by HPLC, and the concentration of the recovered peritoneal washing solution was calculated."}, "[2]": {"system": "luciferase-expressing A549 cell", "test": "Therapeutic experiment in A549 peritoneal dissemination model", "type": "in vivo, mice", "experimental": "The therapeutic effect was verified using a peritoneal dissemination model using SN38-βGal. Whether the tumor suppression effect was confirmed was evaluated as compared with the Vehicle group (DMSO administration) by separating the SN38-βGal from the 10 mg/kg and 20 mg/kg administration groups.\nn = 3 for each group, and evaluation was performed on luciferase-expressing A549 cell peritoneal dissemination model mice using BALB/cAJcl-nu/nu. The administration form was intraperitoneal administration (i.p.), and continuous administration was performed for 40 days. Tumor burden was determined by evaluating luciferin/luciferase chemiluminescence. An endpoint was a time point at which significant body weight loss (20% loss) or intraperitoneal hemorrhage was found.\nA specific procedure of the therapeutic experiment is shown below. • (1) Luciferase expressing A549 cells 5 × 10^6 cells/mL (200 µL) was intraperitoneally administered to BALB/cAJcl-nu/nu (7 weeks old). • (2) After one week, the formation of peritoneal dissemination was confirmed by luciferin/luciferase chemiluminescence, and drug administration was started. 3 mg (200 µL) of luciferin was administered by intraperitoneal administration, and anesthetized with isoflurane. Thereafter, the chemiluminescent value at 20 minutes after administration was measured by an in vivo imaging device. The drug was prepared by dissolving a 100 mM of DMSO stock in PBS, and administered in a total amount of 100 µL. • (3) On the day of evaluation, the tumor burden was evaluated by luciferin/luciferase chemiluminescence. • (4) After completion of the treatment, gGlu-HMRG (10 µM, 500 µL PBS) was intraperitoneally administered, and 10 minutes later, the abdomen was opened, and the intestinal tract and the peritoneum were taken out. • (5) The seeded lesion was fluorescently imaged by an in vivo fluorescence imaging device, and comparison between the Vehicle and the administration group was performed."}}, "note": "Like-named read-outs stand apart in the source and are kept apart here."}
{"molecule": "CCc1c2c(nc3ccc(O[C@@H]4O[C@H](CO)[C@H](O)[C@H](O)[C@H]4O)cc13)-c1cc3c(c(=O)n1C2)COC(=O)[C@]3(O)CC", "note": "[SN38-βGal]", "values": [{"measurement": "time of highest blood concentration", "setting": "[1]", "value": "around 10 minutes"}, {"measurement": "organ distribution", "setting": "[1]; 10 minutes to 60 minutes after administration", "value": "the absorption from the small intestine was large, and only a slight distribution was confirmed in the brain"}, {"measurement": "intraperitoneal concentration", "setting": "[1]; at 30 minutes", "value": "about 17%"}, {"measurement": "half-life", "setting": "[1]; mouse, blood, ip, read-out: blood half-life", "value": "~30", "unit": "min"}, {"measurement": "AUC(0-inf)", "setting": "[1]; mouse, in vivo, ip", "value": 15900, "unit": "ng·h/mL"}, {"measurement": "AUC(0-t) at 1 h", "setting": "[1]; mouse, in vivo, ip, read-out: AUC0-1h", "value": 15400, "unit": "ng·h/mL"}, {"measurement": "half-life", "setting": "[1]; mouse, in vivo, ip, read-out: t1/2 (converted)", "value": 11.8, "unit": "min"}, {"measurement": "tumor suppression effect (luciferin/luciferase chemiluminescence)", "setting": "[2]; 10 mg/kg and 20 mg/kg i.p., continuous administration for 40 days, vs Vehicle", "value": "the therapeutic efficacy of SN38-βGal in peritoneal dissemination model mice was confirmed"}, {"measurement": "body weight", "setting": "[2]; 10 mg/kg i.p. group", "value": "there was almost no difference from the Vehicle"}, {"measurement": "body weight", "setting": "[2]; 20 mg/kg i.p. group", "value": "a slight body weight loss was found in the 20 mg/kg group by Day 10 of administration"}]}
